Assay results as given in patent US9732097B2, “Process for the synthesis of a phosphoinositide 3-kinase inhibitor” (Incyte Corporation, priority 2015, dated 2017).

Legend:
human JAK1 = human JAK1 (Homo sapiens, UniProt P23458); test: In vitro JAK kinase assay (Example D, HTRF), JAK1; type: biochemical; settings: 1 mM ATP
human JAK2 = human JAK2 (Homo sapiens (Human), UniProt O60674); test: In vitro JAK kinase assay (Example D, HTRF), JAK2; type: biochemical; settings: ratio of JAK2 to JAK1 IC50, 1 mM ATP
Sequence of human JAK2 (O60674 828-1132): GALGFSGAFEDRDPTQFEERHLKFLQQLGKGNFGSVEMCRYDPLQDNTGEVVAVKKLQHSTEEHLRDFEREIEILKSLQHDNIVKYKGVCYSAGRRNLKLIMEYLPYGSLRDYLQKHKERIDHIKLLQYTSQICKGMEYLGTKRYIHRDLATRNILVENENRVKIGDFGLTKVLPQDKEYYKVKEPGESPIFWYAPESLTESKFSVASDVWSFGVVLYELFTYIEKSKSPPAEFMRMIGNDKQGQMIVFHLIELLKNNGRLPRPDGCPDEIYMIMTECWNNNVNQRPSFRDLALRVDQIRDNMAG

| Structure (SMILES) | IC50 (human JAK1) | JAK2/JAK1 (human JAK2) |
| --- | --- | --- |
| N#CC[C@]1(n2cc(-c3ncnc4[nH]ccc34)cn2)C[C@H](N2CCC(Oc3cc(CN4CCC[C@H]4CO)cc(C(F)(F)F)n3)CC2)C1 [compound 12, {trans-3-(4-{[4-{[(2S)-2-(hydroxymethyl)pyrrolidin-1-yl]methyl}-6-(trifluoromethyl)pyridin-2-yl]oxy}piperidin-1-yl)-1-[4-(7H-pyrrolo[2,3-d]pyrimidin-4-yl)-1H-pyrazol-1-yl]cyclobutyl}acetonitrile] | < 10 nM | >10 |
| N#CCC(CN1CCN(C(=O)c2ccc(C#N)cc2F)CC1)n1cc(-c2ncnc3[nH]ccc23)cn1 (stereo not drawn) [compound 5, 4-[(4-{3-cyano-2-[4-(7H-pyrrolo[2,3-d]pyrimidin-4-yl)-1H-pyrazol-1-yl]propyl}piperazin-1-yl)carbonyl]-3-fluorobenzonitrile] | < 10 nM | >10 |
| C[C@@H](O)CNCc1cc(OC2CCN([C@H]3C[C@](CC#N)(n4cc(-c5ncnc6[nH]ccc56)cn4)C3)CC2)nc(C(F)(F)F)c1 [compound 24, {trans-3-(4-{[4-({[(2R)-2-hydroxypropyl]amino}methyl)-6-(trifluoromethyl)pyridin-2-yl]oxy}piperidin-1-yl)-1-[4-(7H-pyrrolo[2,3-d]pyrimidin-4-yl)-1H-pyrazol-1-yl]cyclobutyl}acetonitrile] | < 10 nM | >10 |
| N#CC[C@]1(n2cc(-c3ncnc4[nH]ccc34)cn2)C[C@H](N2CCC(Oc3cc(CN4CC(O)C4)cc(C(F)(F)F)n3)CC2)C1 [compound 11, {trans-3-(4-{[4-[(3-hydroxyazetidin-1-yl)methyl]-6-(trifluoromethyl)pyridin-2-yl]oxy}piperidin-1-yl)-1-[4-(7H-pyrrolo[2,3-d]pyrimidin-4-yl)-1H-pyrazol-1-yl]cyclobutyl}acetonitrile] | < 10 nM | >10 |
| C[C@H](NC(=O)c1cc(F)c(N2CC(CC#N)(n3cc(-c4ncnc5[nH]ccc45)cn3)C2)cc1F)C(F)(F)F [compound 16, 4-{3-(cyanomethyl)-3-[4-(7H-pyrrolo[2,3-d]pyrimidin-4-yl)-1H-pyrazol-1-yl]azetidin-1-yl}-2,5-difluoro-N-[(1S)-2,2,2-trifluoro-1-methylethyl]benzamide] | < 10 nM | >10 |
| N#CCC(CN1CCN(C(=O)c2ccc(C#N)cc2F)CC1)n1ccc(-c2ncnc3[nH]ccc23)c1 (stereo not drawn) [compound 6, 4-[(4-{3-cyano-2-[3-(7H-pyrrolo[2,3-d]pyrimidin-4-yl)-1H-pyrrol-1-yl]propyl}piperazin-1-yl)carbonyl]-3-fluorobenzonitrile] | < 10 nM | >10 |
| N#CCC1(n2cc(-c3ncnc4[nH]ccc34)cn2)CN([C@H]2CC[C@@H](Oc3cc(CN4CC[C@@H](O)C4)cc(C(F)(F)F)n3)CC2)C1 [compound 21, {1-(cis-4-{[4-{[(3R)-3-hydroxypyrrolidin-1-yl]methyl}-6-(trifluoromethyl)pyridin-2-yl]oxy}cyclohexyl)-3-[4-(7H-pyrrolo[2,3-d]pyrimidin-4-yl)-1H-pyrazol-1-yl]azetidin-3-yl}acetonitrile] | < 10 nM | >10 |
| N#CC[C@]1(n2cc(-c3ncnc4[nH]ccc34)cn2)C[C@H](N2CCC(Oc3cc(CN4CCC[C@@H]4CO)cc(C(F)(F)F)n3)CC2)C1 [compound 13, {trans-3-(4-{[4-{[(2R)-2-(hydroxymethyl)pyrrolidin-1-yl]methyl}-6-(trifluoromethyl)pyridin-2-yl]oxy}piperidin-1-yl)-1-[4-(7H-pyrrolo[2,3-d]pyrimidin-4-yl)-1H-pyrazol-1-yl]cyclobutyl}acetonitrile] | < 10 nM | >10 |
| C[C@H](O)CNCc1cc(OC2CCN([C@H]3C[C@](CC#N)(n4cc(-c5ncnc6[nH]ccc56)cn4)C3)CC2)nc(C(F)(F)F)c1 [compound 25, {trans-3-(4-{[4-({[(2S)-2-hydroxypropyl]amino}methyl)-6-(trifluoromethyl)pyridin-2-yl]oxy}piperidin-1-yl)-1-[4-(7H-pyrrolo[2,3-d]pyrimidin-4-yl)-1H-pyrazol-1-yl]cyclobutyl}acetonitrile] | < 10 nM | >10 |
| N#CC[C@]1(n2cc(-c3ncnc4[nH]ccc34)cn2)C[C@H](N2CCN(C(=O)c3ccnc(C(F)(F)F)n3)CC2)C1 [compound 10, [trans-1-[4-(7H-pyrrolo[2,3-d]pyrimidin-4-yl)-1H-pyrazol-1-yl]-3-(4-{[2-(trifluoromethyl)pyrim-idin-4-yl]carbonyl}piperazin-1-yl)cyclobutyl]acetonitrile] | < 10 nM | >10 |
| N#CCC1(n2cc(-c3ncnc4[nH]ccc34)cn2)CN(C2CCN(C(=O)c3ccnc(C(F)(F)F)c3F)CC2)C1 [compound 7, {1-{1-[3-Fluoro-2-(trifluoromethyl)isonico-tinoyl]piperidin-4-yl}-3-[4-(7H-pyrrolo[2,3-d]pyrimidin-4-yl)-1H-pyrazol-1-yl]azetidin-3-yl}acetonitrile] | < 10 nM | >10 |
| CCNCc1cc(O[C@H]2CC[C@@H](N3CC(CC#N)(n4cc(-c5ncnc6[nH]ccc56)cn4)C3)CC2)nc(C(F)(F)F)c1 [compound 19, {1-(cis-4-{[4-[(ethylamino)methyl]-6-(trifluoromethyl)pyridin-2-yl]oxy}cyclohexyl)-3-[4-(7H-pyrrolo[2,3-d]pyrimidin-4-yl)-1H-pyrazol-1-yl]azetidin-3-yl]acetonitrile] | < 10 nM | >10 |
| C[C@@H](O)c1nc2cnc3ccsc3c2n1[C@H]1CC[C@H](CC#N)OC1 [compound 1, ((2R,5S)-5-{2-[(1R)-1-hydroxyethyl]-1H-imidazo[4,5-d]thieno[3,2-b]pyridin-1-yl}tetrahydro-2H-pyran-2-yl)acetonitrile] | < 100 nM | >10 |
| N#CCC1(n2cc(-c3ncnc4[nH]ccc34)cn2)CN(C2CCN(C(=O)Nc3ccc(F)cc3C(F)(F)F)CC2)C1 [compound 8, 4-{3-(Cyanomethyl)-3-[4-(7H-pyrrolo[2,3-d]pyrimidin-4-yl)-1H-pyrazol-1-yl]azetidin-1-yl}-N-[4-fluoro-2-(trifluoromethyl)phenyl] piperidine-1-carboxamide] | < 10 nM | >10 |
| N#CCC1(n2cc(-c3ncnc4[nH]ccc34)cn2)CN([C@H]2CC[C@@H](Oc3cc(CCO)nc(C(F)(F)F)n3)CC2)C1 [compound 18, {1-(cis-4-{[6-(2-hydroxyethyl)-2-(trifluoromethyl)pyrimidin-4-yl]oxy}cyclohexyl)-3-[4-(7H-pyrrolo[2,3-d]pyrimidin-4-yl)-1H-pyrazol-1-yl]azetidin-3-yl}acetonitrile] | < 10 nM | >10 |

More lines, now with the values ahead:

| IC50 (human JAK1) | JAK2/JAK1 (human JAK2) | Structure (SMILES) |
| --- | --- | --- |
| < 10 nM | >10 | N#CC[C@]1(n2cc(-c3ncnc4[nH]ccc34)cn2)C[C@H](N2CCC(Oc3cc(CCO)cc(C(F)(F)F)n3)CC2)C1 [compound 26, {trans-3-(4-{[4-(2-hydroxyethyl)-6-(trifluoromethyl)pyridin-2-yl]oxy}piperidin-1-yl)-1-[4-(7H-pyrrolo[2,3-d]pyrimidin-4-yl)-1H-pyrazol-1-yl]cyclobutyl}acetonitrile] |
| < 10 nM | >10 | C[C@@H](CO)NCc1cc(OC2CCN([C@H]3C[C@](CC#N)(n4cc(-c5ncnc6[nH]ccc56)cn4)C3)CC2)nc(C(F)(F)F)c1 [compound 23, {trans-3-(4-{[4-({[(1S)-2-hydroxy-1-methylethyl]amino}methyl)-6-(trifluoromethyl)pyridin-2-yl]oxy}piperidin-1-yl)-1-[4-(7H-pyrrolo[2,3-d]pyrimidin-4-yl)-1H-pyrazol-1-yl]cyclobutyl}acetonitrile] |
| < 10 nM | >10 | N#CCC1(n2cc(-c3ncnc4[nH]ccc34)cn2)CN([C@H]2CC[C@@H](Oc3cc(CN4CC[C@H](O)C4)cc(C(F)(F)F)n3)CC2)C1 [compound 22, {1-(cis-4-{[4-{[(3S)-3-hydroxypyrrolidin-1-yl]methyl}-6-(trifluoromethyl)pyridin-2-yl]oxy}cyclohexyl)-3-[4-(7H-pyrrolo[2,3-d]pyrimidin-4-yl)-1H-pyrazol-1-yl]azetidin-3-yl}acetonitrile] |
| < 10 nM | >10 | N#CCC1(n2cc(-c3ncnc4[nH]ccc34)cn2)CN(C2CCN(C(=O)c3ccnc(C(F)(F)F)n3)CC2)C1 [compound 9, [3-[4-(7H-pyrrolo[2,3-d]pyrimidin-4-yl)-1H-pyrazol-1-yl]-1-(1-{[2-(trifluoromethyl)pyrim-idin-4-yl]carbonyl}piperidin-4-yl)azetidin-3-yl]acetonitrile] |
| < 10 nM | >10 | N#CCC(C1CCN(c2nc3cccnc3o2)C1)n1cc(-c2ncnc3[nH]ccc23)cn1 (stereo not drawn) [compound 4, 3-(1-[1,3]oxazolo[5,4-b]pyridin-2-ylpyrrolidin-3-yl)-3-[4-(7H-pyrrolo[2,3-d]pyrimidin-4-yl)-1H-pyrazol-1-yl]propanenitrile] |
| < 10 nM | >10 | N#CCC(C1CCN(c2cccc(Cl)n2)C1)n1cc(-c2ncnc3[nH]ccc23)cn1 (single isomer, unassigned) [compound 3, 3-[1-(6-chloropyridin-2-yl)pyrrolidin-3-yl]-3-[4-(7H-pyrrolo[2,3-d]pyrimidin-4-yl)-1H-pyrazol-1-yl]propanenitrile] |
